{"source": "patent US20240316060A1", "about": "“LASER AND BCL-2 INHIBITORS COMBINATION TO TREAT SOLID TUMORS” (Board of Regents, The University of Texas System, priority 2023, published 2024)"}
{"system": "3D spheroids", "experiment": "Annexin-V assay in 3D spheroids (flow-cytometry)", "assay_type": "cell-based", "conditions": "without laser", "description": "Annexin-V Assay in 3D Spheroids\nTable 2 represents the flow-cytometry of solid tumors treated with various modalities including positive controls (DMSO and H2O2) compared with boron nitride/navitoclax formulations with and without laser excitation.", "units": {"Early apoptosis": "%", "Late apoptosis": "%", "Live": "%"}}
{"smiles": "OO", "note": "[H2O2]", "Early apoptosis": 58.37, "Late apoptosis": 40.12, "Live": 1}
{"smiles": "C[S+](C)[O-]", "note": "[DMSO]", "Early apoptosis": 9.51, "Late apoptosis": 5.23, "Live": 85}
{"smiles": "CC1(C)CCC(c2ccc(Cl)cc2)=C(CN2CCN(c3ccc(C(=O)NS(=O)(=O)c4ccc(N[C@H](CCN5CCOCC5)CSc5ccccc5)c(S(=O)(=O)C(F)(F)F)c4)cc3)CC2)C1", "note": "[Free NAVI, Navitoclax]", "Early apoptosis": 32.04, "Late apoptosis": 9.64, "Live": 58}
